In patent publication US20150283269A1, “RECONSTITUTED HUMAN IMMUNE SYSTEM IN A PATIENT DERIVED XENOGRAFT MOUSE MODEL” (Crown Bioscience Inc., priority 2014, published 2015):

Tested on: GA 0055 tumor
Assay: Anti-tumor activity against GA 0055 gastric tumor PDX in HuMice and NOD/SCID mice
Assay type: in vivo, mouse
Text: In yet another example of the utility of the HuPrime™ 3.0 mouse model (PDX human immunocompetent NOD/SCID mouse with CD34^+ hSC+PDX gastric tumor), patient cells derived from a human patient diagnosed with over-expressing gastric cancer, GA 0055, were engrafted into HuPrime™ 3.0 mice.
The HuPrime™ 3.0 mice engrafted with GA 0055 were divided into six groups, four mice each. Three groups were engrafted with UCB human stem cells and three groups were not.
Patient tumor fragments of NSCLC or gastric tumor tissue derived from diseased seed mice were engrafted 2.5 weeks after the CD34+ cell inoculation in order to create patient derived xenograft (PDX) models. Solid tumor sample fragments from seed mice inoculated with selected primary human lung or gastric cancer tissues were harvested and used for inoculation into mice. Each mouse was inoculated subcutaneously at the right flank with one tumor fragment (2-3 mm in diameter) for tumor development. The treatments were started when mean tumor size reached approximately 100-150 mm^3 The transplanted animals were monitored by weekly bleed and FACS analysis for hCD45^+ cells in peripheral blood.

Structure (SMILES): N.N.[Cl][Pt][Cl] [Cisplatin]
- treatment response, stained GA 0055 tumor cross-sections (5 mg/kg Cisplatin, H&E stained cross-section (40x10), FIG. 6A): effective
- tumor growth (HuMice mice (reconstituted human immunocompetent) engrafted with GA 0055, with vs without treatment, FIG. 7A, 7C): slowed tumor growth
